# Molecular target: Human Cav3.1 (Homo sapiens (Human), UniProt O43497)
# Test: Human Cav3.1 calcium channel patch clamp assay (SyncroPatch 384PE, HEK-293 natClytin/TASK1+Cav3.1 cell line)
# Type: cell-based
# Conditions: patch clamp, HEK-293 natClytin/TASK1+Cav3.1 cells; class symbols; read-out: Human Cav3.1 IC50
# Experimental: Pulse generation and data collection were performed with PatchController384 V1.3.0 and DataController384 V1.2.1 (Nanion Technologies). Off-line analysis was performed using Excel and Graphpad Prism (V 8.4.2) with complete data files uploaded to Dotmatics. The access resistance and apparent membrane capacitance were estimated using built-in protocols. Current was recorded in whole cell configuration from a population of cells. The cells were lifted, triturated, and resuspended at 800,000 cells/ml. The cells were allowed to recover in the cell hotel prior to experimentation. Currents were recorded at room temperature. The external solution contained the following (in mM): NaCl 80, NMDG 60, KCl 4, MgCl2 1, CaCl2 6, glucose 5 and HEPES 10 (pH=7.4, Osmolarity ˜300 mOsm). The extracellular solution was used as the wash, reference and compound delivery solution. […] The compound plate was created at 2× concentrated in the extracellular solution. The compound was diluted to 1:2 when added to the recording well. The amount of DMSO in the extracellular solution was held constant at the level used for the highest tested concentration. For the voltage clamp experiments on Cav3.1, data were sampled at 10 KHz. After establishment of the seal and the passage in the whole cell configuration, the cells were held at −120 mV. Cav3.1 current was evoked using a 100 ms step to −20 mV (to measure resting state block), followed by a 1600 ms step to −65 mV and a second 100 ms step to −20 mV (to measure voltage dependent block). The voltage protocol was applied every 15 seconds in the absence and in the presence of the compounds under investigation. […] Current amplitude (pA) was measured in the peak 1 and 2. The average of last 3 sweeps of each liquid period (vehicle, compound under investigation, full block) was calculated. Nickel-sensitive current was used to calculate the % of inhibition in the presence of the compound under investigation.
# Pulse generation and data collection were performed with PatchController384 V1.3.0 and DataController384 V1.2.1 (Nanion Technologies). Off-line analysis was performed using Excel and Graphpad Prism (V 8.4.2) with complete data files uploaded to Dotmatics. The access resistance and apparent membrane capacitance were estimated using built-in protocols. Current was recorded in whole cell configuration from a population of cells.
# The cells were lifted, triturated, and resuspended at 800,000 cells/ml. The cells were allowed to recover in the cell hotel prior to experimentation. Currents were recorded at room temperature. The external solution contained the following (in mM): NaCl 80, NMDG 60, KCl 4, MgCl2 1, CaCl2 6, glucose 5 and HEPES 10 (pH=7.4, Osmolarity ˜300 mOsm). The extracellular solution was used as the wash, reference and compound delivery solution.
# The compound plate was created at 2× concentrated in the extracellular solution. The compound was diluted to 1:2 when added to the recording well. The amount of DMSO in the extracellular solution was held constant at the level used for the highest tested concentration. For the voltage clamp experiments on Cav3.1, data were sampled at 10 KHz. After establishment of the seal and the passage in the whole cell configuration, the cells were held at −120 mV. Cav3.1 current was evoked using a 100 ms step to −20 mV (to measure resting state block), followed by a 1600 ms step to −65 mV and a second 100 ms step to −20 mV (to measure voltage dependent block). The voltage protocol was applied every 15 seconds in the absence and in the presence of the compounds under investigation. […] Current amplitude (pA) was measured in the peak 1 and 2. The average of last 3 sweeps of each liquid period (vehicle, compound under investigation, full block) was calculated. Nickel-sensitive current was used to calculate the % of inhibition in the presence of the compound under investigation.
# Sequence of Human Cav3.1 (O43497 whole entry): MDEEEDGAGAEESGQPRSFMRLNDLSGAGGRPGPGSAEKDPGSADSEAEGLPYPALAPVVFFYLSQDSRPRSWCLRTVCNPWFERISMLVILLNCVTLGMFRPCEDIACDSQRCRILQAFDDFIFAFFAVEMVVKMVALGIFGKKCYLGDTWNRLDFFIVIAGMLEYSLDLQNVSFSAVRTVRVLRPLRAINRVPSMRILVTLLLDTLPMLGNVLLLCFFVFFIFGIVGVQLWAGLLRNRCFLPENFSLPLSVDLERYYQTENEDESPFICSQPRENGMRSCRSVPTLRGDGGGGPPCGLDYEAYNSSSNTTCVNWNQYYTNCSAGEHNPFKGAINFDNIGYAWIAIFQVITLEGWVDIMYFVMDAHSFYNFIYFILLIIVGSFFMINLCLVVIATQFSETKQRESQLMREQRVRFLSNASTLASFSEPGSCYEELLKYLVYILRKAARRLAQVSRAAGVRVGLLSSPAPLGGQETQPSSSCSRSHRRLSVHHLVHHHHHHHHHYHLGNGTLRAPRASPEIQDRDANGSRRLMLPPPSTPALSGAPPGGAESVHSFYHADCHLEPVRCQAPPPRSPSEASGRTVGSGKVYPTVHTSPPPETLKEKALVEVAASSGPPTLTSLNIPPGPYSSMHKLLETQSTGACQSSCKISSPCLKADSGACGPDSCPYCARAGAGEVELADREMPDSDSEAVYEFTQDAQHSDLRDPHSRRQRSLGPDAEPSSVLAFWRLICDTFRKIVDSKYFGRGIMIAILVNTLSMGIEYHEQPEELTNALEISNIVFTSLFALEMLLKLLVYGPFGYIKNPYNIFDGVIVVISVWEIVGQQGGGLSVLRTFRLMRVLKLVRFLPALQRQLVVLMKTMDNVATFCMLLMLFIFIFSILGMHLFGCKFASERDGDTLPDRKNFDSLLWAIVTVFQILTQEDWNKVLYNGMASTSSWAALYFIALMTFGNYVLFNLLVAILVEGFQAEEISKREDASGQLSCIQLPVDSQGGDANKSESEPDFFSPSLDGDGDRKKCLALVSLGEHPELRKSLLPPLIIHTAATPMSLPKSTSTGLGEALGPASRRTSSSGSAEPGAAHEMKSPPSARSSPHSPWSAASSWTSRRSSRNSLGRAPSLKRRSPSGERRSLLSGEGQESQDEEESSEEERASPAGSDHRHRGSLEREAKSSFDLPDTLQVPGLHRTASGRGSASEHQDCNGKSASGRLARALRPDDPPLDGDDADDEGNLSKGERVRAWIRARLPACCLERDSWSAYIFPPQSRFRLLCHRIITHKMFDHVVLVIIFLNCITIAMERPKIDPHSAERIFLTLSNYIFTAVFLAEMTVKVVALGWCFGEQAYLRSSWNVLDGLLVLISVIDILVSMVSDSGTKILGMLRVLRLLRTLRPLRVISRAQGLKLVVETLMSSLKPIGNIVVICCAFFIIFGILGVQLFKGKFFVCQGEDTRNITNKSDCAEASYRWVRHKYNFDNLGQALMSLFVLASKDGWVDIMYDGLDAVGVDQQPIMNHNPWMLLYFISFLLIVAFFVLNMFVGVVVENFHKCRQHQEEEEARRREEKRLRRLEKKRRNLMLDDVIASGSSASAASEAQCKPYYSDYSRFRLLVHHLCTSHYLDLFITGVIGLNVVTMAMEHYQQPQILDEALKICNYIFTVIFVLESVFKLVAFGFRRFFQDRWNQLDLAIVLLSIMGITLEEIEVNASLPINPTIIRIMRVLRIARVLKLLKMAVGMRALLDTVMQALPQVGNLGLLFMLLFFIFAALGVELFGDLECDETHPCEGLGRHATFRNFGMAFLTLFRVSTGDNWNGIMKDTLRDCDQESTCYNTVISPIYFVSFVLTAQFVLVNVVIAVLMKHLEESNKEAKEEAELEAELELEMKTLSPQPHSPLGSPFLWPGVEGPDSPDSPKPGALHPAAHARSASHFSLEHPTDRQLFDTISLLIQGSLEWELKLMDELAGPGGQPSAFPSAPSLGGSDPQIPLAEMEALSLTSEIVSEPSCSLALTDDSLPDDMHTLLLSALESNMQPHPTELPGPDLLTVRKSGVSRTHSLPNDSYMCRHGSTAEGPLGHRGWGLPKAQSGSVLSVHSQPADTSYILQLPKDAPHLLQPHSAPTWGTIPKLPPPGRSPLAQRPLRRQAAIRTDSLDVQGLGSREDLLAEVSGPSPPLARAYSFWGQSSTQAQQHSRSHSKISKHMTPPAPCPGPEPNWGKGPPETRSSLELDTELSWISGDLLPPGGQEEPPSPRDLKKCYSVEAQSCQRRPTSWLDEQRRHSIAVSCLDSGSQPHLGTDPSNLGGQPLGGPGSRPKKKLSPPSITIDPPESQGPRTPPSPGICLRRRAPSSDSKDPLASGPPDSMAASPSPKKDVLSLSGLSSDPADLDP
row,Compound,IC50
1,CC(C)(C)NC(=O)CN1CC2(CCC(C(=O)Nc3cc(F)cc(Cl)c3)CC2)C1 [Example 25],< 1000 nM
2,O=C(Nc1cc(F)cc(C(F)F)c1)C1CCC2(CC1)CN(CCC1CCCC1)C2 [Example 31],< 1000 nM
3,CC(C)(C)CCN1CC2(CCC(C(=O)Nc3cc(F)cc(Cl)c3)CC2)C1 [Example 22],< 1000 nM
4,O=C(Nc1cc(F)cc(Cl)c1)C1CCC2(CC1)CN(Cc1cccc(C(F)(F)F)c1)C2 [Example 24],< 1000 nM
5,CC(C)(NC(=O)CN1CC2(CCC(C(=O)Nc3cc(F)cc(Cl)c3)CC2)C1)C(F)(F)F [Example 16],< 1000 nM
6,O=C(CN1CC2(CCC(C(=O)Nc3cc(F)cc(Cl)c3)CC2)C1)NC1CCCC1 [Example 21],< 1000 nM
7,O=C(CN1CC2(CCC(C(=O)Nc3cc(F)cc(C(F)F)c3)CC2)C1)NC1CCCC1 [Example 32],< 1000 nM
8,CCC(C)(C)N(C)C(=O)CN1CC2(CCC(C(=O)Nc3cc(F)cc(C(F)F)c3)CC2)C1 [Example 34],< 1000 nM
9,CC(C)(C)CCN1CC2(CCC(C(=O)Nc3cc(F)cc(C(F)F)c3)CC2)C1 [Example 33],< 1000 nM
10,"CCC(C)(C)NC(=O)CN1CC2(CCC(C(=O)Nc3cc(F)cc(Cl)c3)CC2)C1 [Example 10, N-(3-chloro-5-fluorophenyl)-2-(2-oxo-2-(tert-pentylamino)ethyl)-2-azaspiro[3.5]nonane-7-carboxamide]",< 1000 nM

# Same assay, conditions: voltage dependent block (VDB); read-out: Cav3.1 (VDB) IC50
row,Compound,IC50
1,CC(C)(C)NC(=O)CN1CC2(CCC(C(=O)Nc3cc(F)cc(Cl)c3)CC2)C1 [Example 25],174 nM
2,N#CC1(CN2CC3(CCC(C(=O)NCc4cc(F)cc(Cl)c4)CC3)C2)CCCCC1 [Example 131],664 nM
3,CC1(OC(=O)NCCN2CC3(CCC(C(=O)Nc4cc(F)cc(Cl)c4)CC3)C2)CC1 [Example 81],307 nM
4,N#CC1(CN2CC3(CCC(C(=O)Nc4cc(F)cc(Cl)c4)CC3)C2)CC1 [Example 118],529 nM
5,N#CC1(CN2CC3(CCC(C(=O)Nc4cc(F)cc(C(F)F)c4)CC3)C2)CCC(F)(F)CC1 [Example 99],537 nM
6,O=C(Nc1cc(F)cc(C(F)F)c1)C1CCC2(CC1)CN(CCC1CCCC1)C2 [Example 31],376 nM
7,Cc1cc(F)cc(C(=O)NCC2CCC3(CC2)CN(CC(=O)NC(C)(C)C)C3)c1 [Example 144],804 nM
8,O=C(Nc1cc(F)cc(C(F)F)c1)C1CCC2(CC1)CN(CC(=O)N1CCOCC1)C2 [Example 41],846 nM
9,O=C(CN1CC2(CCC(CNC(=O)c3cc(F)cc(Cl)c3)CC2)C1)NC1(C(F)(F)F)CC1 [Example 143],373 nM
10,N#CC1(CN2CC3(CCC(C(=O)Nc4cc(F)cc(OC(F)F)c4)CC3)C2)CC1 [Example 135],1010 nM
11,COc1cc(F)cc(NC(=O)C2CCC3(CC2)CN(CC(=O)NC2(C(F)(F)F)CCC2)C3)c1 [Example 84],110 nM
12,COCC(C)(C)NC(=O)CN1CC2(CCC(C(=O)Nc3cc(F)cc(C(F)F)c3)CC2)C1 [Example 45],191 nM
13,CC(C)(NC(=O)CN1CC2(CCC(C(=O)Nc3cccc(C(F)F)c3)CC2)C1)C(F)(F)F [Example 65],430 nM
14,O=C(CN1CC2(CCC(C(=O)Nc3cc(F)cc(Cl)c3)CC2)C1)NC1(C(F)(F)F)COC1 [Example 89],522 nM
15,N#CC1(CN2CC3(CCC(C(=O)Nc4cccc(Cl)c4)CC3)C2)CCCCC1 [Example 103],544 nM
16,O=C(CN1CC2(CCC(C(=O)Nc3ccc(F)c(C(F)F)c3)CC2)C1)NC1(C(F)(F)F)CC1 [Example 127],492 nM
17,O=C(CN1CC2(CCC(C(=O)NC34CCC(CC3)CC4)CC2)C1)NC1(C(F)(F)F)CC1 [Example 148],357 nM
18,O=C(Nc1cc(F)cc(Cl)c1)C1CCC2(CC1)CN(Cc1cccc(C(F)(F)F)c1)C2 [Example 24],890 nM
19,CC(C)(C)CCN1CC2(CCC(C(=O)Nc3cc(F)cc(Cl)c3)CC2)C1 [Example 161],252 nM
20,N#CC1(CN2CC3(CCC(C(=O)Nc4cc(F)cc(Cl)c4)CC3)C2)CCC(F)(F)CC1 [Example 107],427 nM
21,CC(C)(NC(=O)CN1CC2(CCC(C(=O)Nc3cc(F)cc(Cl)c3)CC2)C1)C(F)(F)F [Example 16],170 nM
22,CC(C)(C)OC(=O)CN1CC2(CCC(C(=O)Nc3cc(F)cc(Cl)c3)CC2)C1 [Example 56],513 nM
23,O=C(Nc1cc(F)cc(Cl)c1)C1CCC2(CC1)CN(CC1(F)CCC(F)(F)CC1)C2 [Example 73],333 nM
24,CC(C)(C)S(=O)(=O)CCN1CC2(CCC(C(=O)Nc3cc(F)cc(C(F)F)c3)CC2)C1 [Example 87],855 nM
25,O=C(Nc1cc(F)cc(Cl)c1)C1CCC2(CC1)CN(CC1(O)CCC(F)(F)CC1)C2 [Example 60],130 nM

row,Compound,IC50
1,CC(C)(C)C(O)CN1CC2(CCC(C(=O)NC34CC5CC(CC(C5)C3)C4)CC2)C1 (centres unmarked) [Example 152],583 nM
2,O=C(Nc1cc(F)cc(Cl)c1)C1CCC2(CC1)CN(CC(F)C1CCCC1)C2 (centres unmarked) [Example 77],439 nM
3,Cc1cc(Cl)cc(NC(=O)C2CCC3(CC2)CN(CC2(C#N)CCOCC2)C3)c1 [Example 141],1200 nM
4,N#CC1(CN2CC3(CCC(C(=O)Nc4cc(F)cc(C(F)F)c4)CC3)C2)CCCCC1 [Example 94],612 nM
5,O=C(CN1CC2(CCC(C(=O)Nc3cc(F)cc(Cl)c3)CC2)C1)NC1CCCC1 [Example 21],< 78.2 nM
6,CC1(S(=O)(=O)NCCN2CC3(CCC(C(=O)Nc4cc(F)cc(C(F)F)c4)CC3)C2)CC1 [Example 76],550 nM
7,O=C(Nc1cc(F)cc(C(F)F)c1)C1CCC2(CC1)CN(CC(F)(F)C1CCCCC1)C2 [Example 92],905 nM
8,CC1(OC(=O)CN2CC3(CCC(C(=O)Nc4cc(F)cc(Cl)c4)CC3)C2)CC1 [Example 64],617 nM
9,COc1cc(F)cc(NC(=O)C2CCC3(CC2)CN(CC(=O)NC2(C(F)(F)F)CC2)C3)c1 [Example 82],238 nM
10,O=C(CN1CC2(CCC(C(=O)Nc3cc(F)cc(C(F)F)c3)CC2)C1)NC1(C(F)(F)F)COC1 [Example 86],344 nM
11,COc1cc(Cl)cc(NC(=O)C2CCC3(CC2)CN(CC(=O)NC(C)(C)C)C3)c1 [Example 159],159 nM
12,O=C(CN1CC2(CCC(C(=O)Nc3cc(F)cc(C(F)F)c3)CC2)C1)NC1CCCC1 [Example 32],139 nM
13,O=C(Nc1cc(F)cc(C(F)F)c1)C1CCC2(CC1)CN(CC(F)C1CCCC1)C2 (centres unmarked) [Example 93],645 nM
14,COc1cc(F)cc(NC(=O)C2CCC3(CC2)CN(CCS(=O)(=O)C(C)(C)C)C3)c1 [Example 88],1010 nM
15,CN(C(=O)CN1CC2(CCC(C(=O)Nc3cc(F)cc(C(F)F)c3)CC2)C1)C1(C)CCC1 [Example 40],338 nM
16,CCC(C)(C)N(C)C(=O)CN1CC2(CCC(C(=O)Nc3cc(F)cc(C(F)F)c3)CC2)C1 [Example 34],199 nM
17,CC1(C)COCCN1C(=O)CN1CC2(CCC(C(=O)Nc3cc(F)cc(C(F)F)c3)CC2)C1 [Example 44],176 nM
18,N#CC1(CN2CC3(CCC(C(=O)Nc4cc(F)cc(Cl)c4)CC3)C2)CCCCC1 [Example 98],352 nM
19,CCOc1cccc(NC(=O)C2CCC3(CC2)CN(CC(=O)NC2(C(F)(F)F)CC2)C3)c1 [Example 114],1130 nM
20,O=C(Nc1cc(F)cc(Cl)c1)C1CCC2(CC1)CN(CC(F)(F)C1CCCC1)C2 [Example 78],1070 nM
21,COc1cc(F)cc(NC(=O)C2CCC3(CC2)CN(CC2(C#N)CC2)C3)c1 [Example 138],2270 nM
22,O=C(CN1CC2(CCC(C(=O)Nc3cccc(C(F)F)c3)CC2)C1)NC1(C(F)(F)F)CC1 [Example 111],932 nM
23,CC(C)(C)CCN1CC2(CCC(C(=O)Nc3cc(F)cc(C(F)F)c3)CC2)C1 [Example 33],339 nM
24,"CCC(C)(C)NC(=O)CN1CC2(CCC(C(=O)Nc3cc(F)cc(Cl)c3)CC2)C1 [Example 10, N-(3-chloro-5-fluorophenyl)-2-(2-oxo-2-(tert-pentylamino)ethyl)-2-azaspiro[3.5]nonane-7-carboxamide]",142 nM
